According to US10222368B2 (priority 2012, dated 2019):

Molecular target: T1, mu opiate receptor (MOR) (Rattus norvegicus, UniProt P33535)
T1 construct: from tissue; host or cells: striatal tissue (membrane preparation)
Assay: MOR agonist activity using [35S]GTPγS binding assay in striatal membranes
Assay type: biochemical
Conditions: for MOR agonist activity, [35S]GTPγS binding, FLNA-binding compound as agonist at 0.1 μM: 0.1 μM compound; for MOR agonist activity, [35S]GTPγS binding, FLNA-binding compound as agonist at 0.1 μM / MOR agonist activity, [35S]GTPγS binding, FLNA-binding compound as agonist at 1 μM: Series C-2; for MOR agonist activity, [35S]GTPγS binding, 1 μM + BFNA: 1 μM compound + 1 μM β-FNA (MOR antagonist); for % DAMGO + BFNA: 1 μM compound + BFNA relative to DAMGO + BFNA; for % DAMGO (1 μM): relative to DAMGO
Method: To assess the mu opiate receptor (MOR) agonist activity of positive compounds from the FLNA screening, compounds were tested in a [^35S]GTPγS binding assay using striatal membranes. […] This assay measures a functional consequence of receptor occupancy at one of the earliest receptor-mediated events. The assay permits for traditional pharmacological parameters of potency, efficacy and antagonist affinity, with the advantage that agonist measures are not subjected to amplification or other modulation that may occur when analyzing parameters further downstream of the receptor.
Thus, striatal tissue was homogenized in 10 volumes of ice cold 25 mM HEPES buffer, pH 7.4, which contained 1 mM EGTA, 100 mM sucrose, 50 μg/ml leupeptin, 0.04 mM PMSF, 2 μg/ml soybean trypsin inhibitor and 0.2% 2-mercaptoethanol. The homogenates were centrifuged at 800×g for 5 minutes and the supernatants were centrifuged at 49,000×g for 20 minutes.
The resultant striatal membrane preparation (200 μg) was admixed and maintained (incubated) at 30° C. for 5 minutes in reaction buffer as above that additionally contained 1 mM MgCl2 and 0.5 nM [^35S]GTPγS (0.1 μCi/assay, PerkinElmer Life and Analytical Sciences) in a total volume of 250 μl and continued for 5 minutes in the absence or presence of 0.1-10 μM of an assayed compound of interest. The reaction was terminated by dilution with 750 μl of ice-cold reaction buffer that contained 20 mM MgCl2 and 1 mM EGTA and immediate centrifugation at 16,000×g for 5 minutes.
Normal rabbit serum (1 μl) was added to 1 ml of lysate and incubated at 25° C. for 30 minutes. Nonspecific immune complexes were removed by incubation with 25 μl of protein A/G-conjugated agarose beads at 25° C. for 30 minutes followed by centrifugation at 5,000×g at 4° C. for 5 minutes. The supernatant was divided and separately incubated at 25° C. for 30 minutes with antibodies raised against Gαo proteins (1:1,000 dilutions).
The immunocomplexes so formed were collected by incubation at 25° C. for 30 minutes with 40 μl of agarose-conjugated protein A/G beads and centrifugation at 5,000×g at 4° C. for 5 minutes. The pellet was washed and suspended in buffer containing 50 mM Tris-HCl, pH 8.0, and 1% NP-40. The radioactivity in the suspension was determined by liquid scintillation spectrometry.

[1] = 1 μM compound, striatal membranes

T1 sequence (P33535 whole entry): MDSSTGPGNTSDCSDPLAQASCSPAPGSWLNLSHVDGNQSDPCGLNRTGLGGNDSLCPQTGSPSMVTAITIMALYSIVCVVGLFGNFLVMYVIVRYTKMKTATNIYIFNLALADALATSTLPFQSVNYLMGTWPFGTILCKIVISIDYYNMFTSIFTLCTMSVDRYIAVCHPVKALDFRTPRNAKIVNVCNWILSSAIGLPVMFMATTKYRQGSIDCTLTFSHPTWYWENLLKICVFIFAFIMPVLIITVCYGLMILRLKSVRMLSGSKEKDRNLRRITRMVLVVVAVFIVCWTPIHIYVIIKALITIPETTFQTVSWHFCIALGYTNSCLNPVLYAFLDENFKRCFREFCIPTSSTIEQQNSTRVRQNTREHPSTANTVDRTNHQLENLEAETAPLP

Row | SMILES | MOR agonist activity, [35S]GTPγS binding, FLNA-binding compound as agonist at 0.1 μM (striatal membranes) [%] | MOR agonist activity, [35S]GTPγS binding, 1 μM + BFNA (striatal membranes) [%] | MOR agonist activity, [35S]GTPγS binding, FLNA-binding compound as agonist at 1 μM [1] [%] | MOR agonist activity, [35S]GTPγS binding, at 1 μM compound (Series B, 1 μM compound, [35S]GTPγS binding to Gαo, striatal membranes) [%] | % DAMGO + BFNA (Series C-1) [%] | % DAMGO + BFNA (Series B) [%] | % DAMGO (1 μM) (1 μM compound) [%]
1 | CS(=O)(=O)c1ccc(S(=O)(=O)N2CCOC23CCN(CC2CC2)CC3)cc1 [Compound C0126M] | 181.8 | 108.5 | 265.3 |  |  |  | 
2 | CC(=O)c1ccc(S(=O)(=O)N2CCOC23CCNCC3)cc1 [Compound C0046] | 286.2 | 156.8 | 492.9 |  |  |  | 
3 | COc1ccc(S(=O)(=O)N2CCOC23CCCNC3)cc1 (stereo not drawn) [Compound C0145M-3] | 193.0 | 87.0 | 289.2 |  |  |  | 
4 | COc1cccc(CC(=O)CC2c3c(cc4c(c3OC)OCO4)CC[N+]2(C)C)c1OC.[I-] (stereo not drawn) [Compound B0038] |  |  |  | 205.3 |  |  | 
5 | COc1cccc(S(=O)(=O)N2CCC3(CC2)OCCN3S(=O)(=O)c2cccc(OC)c2)c1 [Compound C0002] |  |  |  |  | 6.1 |  | 
6 | O=S(=O)(c1ccccc1Oc1ccccc1)N1CCC2(CC1)NCCO2 [Compound C0149M-2] | 209.8 | 93.4 | 406.7 |  |  |  | 
7 | COc1ccc(S(=O)(=O)N2CCC3(CC2)NCCO3)cc1 [Compound C0026] | 207.2 | 21.2 | 288.4 |  |  |  | 
8 | COc1c2c(cc3c1C(CC(=O)c1ccc(F)c(F)c1)[N+](C)(C)CC3)OCO2 (stereo not drawn) [Compound B0003] |  |  |  |  |  | 29.0 | 
9 | COc1ccc(S(=O)(=O)N2CCOC23CCNCC3)cc1 [Compound C0027] | 233.2 | 72.2 | 313.9 |  |  |  | 
10 | CC(=O)c1ccc(C(=O)N2CCC3(CC2)OCCN3S(=O)(=O)c2ccc(C(C)=O)cc2)cc1 [Compound C0052] |  |  |  |  | 97.0 |  | 
11 | O=C1CN(C2CCc3ccccc3C2)C2(CCN(S(=O)(=O)c3ccccc3)CC2)N1 (stereo not drawn) [C0136M (P5)] | 176.8 | 74.5 | 237.3 |  |  |  | 
12 | COc1ccc(NC(=O)N2CCC3(CC2)NCCO3)cc1 [Compound C0151M-2] | 346.8 | 212.8 | 397.6 |  |  |  | 
13 | COc1ccc(S(=O)(=O)N2CCOC23CCN(CC2CC2)CC3)cc1 [Compound C0090M] | 237.0 | 41.0 | 341.0 |  |  |  | 
14 | CC(=O)c1ccc(S(=O)(=O)N2CC(CN(C)C)OC23CCNCC3)cc1 (stereo not drawn) [Compound C0118M] | 166.2 | 79.2 | 261.5 |  |  |  | 
15 | CCOC(=O)CN1CCC2(CC1)OCCN2S(=O)(=O)c1ccc(C(C)=O)cc1 [Compound C0099M] | 157.2 | 114.7 | 195.7 |  |  |  | 88.0
16 | CC(=O)c1ccc(S(=O)(=O)N2CC(=O)NC23CCNCC3)cc1 [Compound C0086M] | 206.8 | 152.3 | 265.3 |  |  |  | 
17 | CC(=O)c1ccc(S(=O)(=O)N2C(Cc3c[nH]cn3)C(=O)NC23CCNCC3)cc1 (stereo not drawn) [Compound C0119M] | 105.7 | 35.1 | 167.8 |  |  |  | 83.0
